Measurements reported in patent publication US20120258975A1, “Potent Small Molecule Inhibitors of Autophagy, and Methods of Use Thereof” (Shanghai Institute of Organic Chemistry, priority 2009, published 2012).

Experiments:
[1] = system: LC3-GFP (H4-LC3-GFP cells); assay: Starvation induced autophagy in H4-LC3-GFP cells; type: cell-based; conditions: Hanks buffer 1 h; MBCQ 5 μM, 3-MA 10 mM, wortmannin 0.1 μM
Excerpt: FIG. 2 depicts results relating to MBCQ inhibition of autophagy induced by starvation. Quantitative measurement of LC3-GFP spot number per cell (a), spot size per cell (b) and spot intensity per cell (c) using HCS and expressed as % of control.

[2] = system: LC3II; assay: Endogenous LC3II western blot in H4-LC3, 293T and MEF cells; type: cell-based; conditions: MBCQ and rapamycin co-treated versus rapamycin alone
Description: To confirm the inhibition of autophagy by MBCQ, H4-LC3 cells, 293T cells and mouse embryonic fibroblast cells were treated with MBCQ and the levels of endogenous LC3II were measured by western blot.

[3] = system: H4 cells; assay: Electron microscopy of H4 cells; type: cell-based
Description: FIG. 3 depicts electron microscopy analysis of the effect of MBCQ on autophagy. H4 cells were treated with 0.1% DMSO (vehicle), rapamycin (0.2 μM), MBCQ (10 μM), or MBCQ and rapamycin for 4 h. The cells were processed and imaged by EM.
The ultra-structure of cells treated with rapamycin was determined in the presence or absence of MBCQ. […] Treatment of rapamycin led to the formation of a large numbers of autophagosomes with characteristic double membrane.

[4] = system: H4 cells; assay: H4 cell growth and cell cycle; type: cell-based; conditions: 5 μM for 24 h and 48 h
Description: FIG. 6 depicts results showing that MBCQ has little effect on H4 cell growth. A, H4 cells were treated with MBCQ (5 μM) for 5 days and harvested daily for cell number counting in the presence of trypan blue; B, H4 cells were treated with MBCQ (5 μM) for 24 h and 48 h, and then cells were fixed with 70% ethanol, stained with propidium iodide (40 μg/mL) and incubated with RNase (200 μg/mL solution for 30 min. The cell cycle profile and possible apoptotic cell death were analyzed by flow cytometer.
To characterize the effect of MBCQ on cellular activity, the effect of MBCQ on cell survival and cell cycle was determined as outlined below. H4 cells were treated with MBCQ (5 μM) for 5 days and harvested daily for cell number counting in the presence of trypan blue. […] The cell cycle profile and possible apoptotic cells in H4 cells treated with MBCQ (5 μM) for 24 h and 48 h was also determined.

[5] = system: mTOR pathway; assay: Western blotting of mTOR pathway phosphorylation; type: cell-based
Excerpt: Since MBCQ inhibits autophagy induced by rapamycin and starvation, it was first determined if MBCQ affects the activity of mTOR. […] Thus, it was concluded that MBCQ has no effect for the mTOR pathway or type I PI3 kinase.

[6] = system: major intracellular organelles; assay: Markers of intracellular organelles; type: cell-based
Description: The effects of MBCQ on early endosomes using immunostaining of EEA1 as a marker, lysosomes using immunostaining of lamp2 as a marker or lysotracker, trans-Golgi using GalT-YFP as a marker was determined. No effect of MBCQ was detected in any of these experiments.

[7] = target: T1, Vps34 complex (Homo sapiens, UniProt Q8NEB9); assay: Vps34 complex kinase assay (PtdIns phosphorylation, TLC); type: biochemical; conditions: immunoprecipitated HA-Vps34 complex from 293T; wortmannin 10 uM
T1 construct: expressed in transfected cells; host or cells: 293T
T1 sequence (Q8NEB9 whole entry): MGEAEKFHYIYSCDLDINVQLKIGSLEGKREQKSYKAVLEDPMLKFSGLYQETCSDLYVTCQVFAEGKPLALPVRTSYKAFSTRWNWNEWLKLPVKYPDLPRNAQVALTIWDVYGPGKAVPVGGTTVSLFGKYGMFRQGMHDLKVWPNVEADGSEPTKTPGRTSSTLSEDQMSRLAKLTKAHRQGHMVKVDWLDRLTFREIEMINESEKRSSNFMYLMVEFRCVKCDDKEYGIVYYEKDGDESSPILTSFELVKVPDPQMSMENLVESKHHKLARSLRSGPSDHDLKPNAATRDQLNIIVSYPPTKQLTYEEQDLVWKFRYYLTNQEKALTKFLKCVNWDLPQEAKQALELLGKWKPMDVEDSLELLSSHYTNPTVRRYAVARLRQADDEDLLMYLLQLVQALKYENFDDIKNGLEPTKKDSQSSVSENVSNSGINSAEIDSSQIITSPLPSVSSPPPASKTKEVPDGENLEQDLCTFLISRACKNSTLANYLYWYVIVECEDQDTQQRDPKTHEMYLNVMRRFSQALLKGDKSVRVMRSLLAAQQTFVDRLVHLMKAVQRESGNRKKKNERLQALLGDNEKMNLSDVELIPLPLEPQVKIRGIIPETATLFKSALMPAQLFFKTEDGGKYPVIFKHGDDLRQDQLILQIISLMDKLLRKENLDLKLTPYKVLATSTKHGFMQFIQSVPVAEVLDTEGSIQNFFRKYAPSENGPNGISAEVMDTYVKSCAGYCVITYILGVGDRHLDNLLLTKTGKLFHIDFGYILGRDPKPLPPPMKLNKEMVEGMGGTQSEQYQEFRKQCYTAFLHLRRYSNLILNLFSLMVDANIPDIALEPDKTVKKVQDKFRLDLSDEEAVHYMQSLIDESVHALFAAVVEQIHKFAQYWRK
T1 sequence (Q14457 whole entry partner): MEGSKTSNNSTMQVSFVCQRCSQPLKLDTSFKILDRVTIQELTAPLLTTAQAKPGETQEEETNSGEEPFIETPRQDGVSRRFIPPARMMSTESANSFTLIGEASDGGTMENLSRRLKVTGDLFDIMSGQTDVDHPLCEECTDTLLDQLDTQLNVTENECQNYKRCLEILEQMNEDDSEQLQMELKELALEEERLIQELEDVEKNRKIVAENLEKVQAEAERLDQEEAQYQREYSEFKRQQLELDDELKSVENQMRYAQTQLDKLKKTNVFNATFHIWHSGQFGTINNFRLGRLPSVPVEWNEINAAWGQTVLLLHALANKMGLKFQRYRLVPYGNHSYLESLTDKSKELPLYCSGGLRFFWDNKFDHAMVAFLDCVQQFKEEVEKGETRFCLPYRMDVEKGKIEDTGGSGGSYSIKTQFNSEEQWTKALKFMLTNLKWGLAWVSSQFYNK

[8] = system: MEF cells; assay: Electron microscopy of MEF cells; type: cell-based, mouse; conditions: rapamycin (0.2 μM) plus compound, 4 h
Description: FIG. 5 depicts results related to showing that active derivatives of MBCQ reduce the levels of LC3II in MEF cells. […] The cell lysates were collected for western blotting using anti-LC3 antibody. B, Electron microscopy confirmation of the autophagy inhibitory effects of C43 (spautin) on MEF cells. MEF cells were treated with vehicle control (1‰ DMSO), and other indicated compounds for 4 h. Rapamycin (0.2 μM) and C43 (spautin) (10 μM). Then the cells were fixed with glutaraldehyde and prepared the sample for EM assay. Bar, 1:11,000. Arrows indicate double and multi-membrane autophagosomic vesicles. N: nucleus.
The effect of C29 and C43 on autophagy was further confirmed by electron microscopy. In rapamycin treated MEF cells, numerous autophagosome vesicles with double membranes were observed, as well as many vesicles with multi-membrane as expected (FIG. 5B).

[9] = system: MDA-MB-231 cells; assay: MDA-MB-231 cell survival under serum free condition; type: cell-based
Description: Since autophagy is activated under metabolic stress conditions to support cell survival, compounds were tested to determine if they promote cell death under starvation condition.

[10] = system: MCF-7 cells; assay: MCF-7 cells under glucose-free condition; type: cell-based
Description: FIG. 11 depicts results showing that selected cancer cell lines are sensitive to MBCQ and its active derivatives under glucose free condition. BT549 cells were treated with indicated concentrations of C43 for 24 h in normal DMEM (A) or under serum free condition (B). The cell viability was assayed by MTT or harvested for western blotting assay with anti-LC3 (C). MCF-7 cells were treated with DMSO (1‰), C43 (10 μM) in DMEM with (D) or without (E) glucose, for 12 h. The cell viability was assayed by MTT or images (F). […] Bcap-37 cells were treated with indicated concentrations of C43 for 24 h in normal DMEM (H) or under serum free condition (I). The cell viability was assayed by MTT or images (J) And the cell lysates treated with C43 for indicated time were analyzed by western blotting using anti-PARP (L) or anti-LC3 (M) and α-tubulin was used as a loading control. (K) Cell cycle profile of Bcap-37 treated with C43. Bcap-37 cells were treated with DMSO (0.1%) (left figure), C43 (10 μM) (right figure) for 12 h. The cells were then fixed with 70% ethanol, stained with propidium iodide (PI, 40 μg/mL) and treated with RNase enzyme (200 μg/mL) solution for 30 min in dark. Cell cycle profile and possible apoptotic death were statistics analyzed by flow cytometer. […]

[11] = system: Bcap-37 cells; assay: Bcap-37 cells, normal and glucose free condition; type: cell-based
Description: FIG. 11 depicts results showing that selected cancer cell lines are sensitive to MBCQ and its active derivatives under glucose free condition. BT549 cells were treated with indicated concentrations of C43 for 24 h in normal DMEM (A) or under serum free condition (B). The cell viability was assayed by MTT or harvested for western blotting assay with anti-LC3 (C). MCF-7 cells were treated with DMSO (1‰), C43 (10 μM) in DMEM with (D) or without (E) glucose, for 12 h. The cell viability was assayed by MTT or images (F). […] Bcap-37 cells were treated with indicated concentrations of C43 for 24 h in normal DMEM (H) or under serum free condition (I). The cell viability was assayed by MTT or images (J) And the cell lysates treated with C43 for indicated time were analyzed by western blotting using anti-PARP (L) or anti-LC3 (M) and α-tubulin was used as a loading control. (K) Cell cycle profile of Bcap-37 treated with C43. Bcap-37 cells were treated with DMSO (0.1%) (left figure), C43 (10 μM) (right figure) for 12 h. The cells were then fixed with 70% ethanol, stained with propidium iodide (PI, 40 μg/mL) and treated with RNase enzyme (200 μg/mL) solution for 30 min in dark. Cell cycle profile and possible apoptotic death were statistics analyzed by flow cytometer.
To explore the mechanism by which C43 induces the death of Bcap-37 cells, the DNA content was analyzed by FACS.

[12] = system: USP3, USP10, USP13, USP16, USP18; assay: USP protein levels (western blot)
Description: H4 cells were transfected with indicated siRNAs for 72 hrs or treated with rapamycin (0.2 μM) or spautin (10 μM) for 4 hrs, and non-target siRNA (N. T. siRNA) was used as negative control. The cell lysates were harvested and analyzed by western blotting using (Left): antibodies specific for the indicated proteins. Anti-α-tubulin was used as loading controls.

Structure (SMILES)	starvation induced autophagy (LC3-GFP spot number, size, intensity) [1]	levels of LC3II [2]	cell morphology ([3]; MBCQ alone for 4 h)	double membrane autophagosomes ([3]; rapamycin (0.2 μM) and MBCQ (10 μM) together, 4 h)	cell cycle distribution [4]	phosphorylation of GSK-3α/β, AKT [5]	phosphorylation of mTOR and its targets, p70S6K and S6 ([5]; control or rapamycin treated cells)	early endosomes (EEA1), lysosomes (lamp2, lysotracker), trans-Golgi (GalT-YFP) [6]	phosphorylation of PtdIns by Vps34 complex [7]	autophagosomes [8]	cell survival [9]	autophagy (western blot, LC3) ([10]; basal and glucose-free condition)	cell survival ([10]; glucose-free condition)	autophagy (western blot) ([11]; basal and glucose-free conditions)	sensitivity of cells to compound ([11]; glucose free condition)	DNA content by FACS ([11]; glucose-free condition)	proliferation ([11]; in the presence of 10% bovine serum)	levels of USP13 and USP10 ([12]; 293T cells and Bcap-37 cells)	levels of USP44 ([12]; 293T cells and Bcap-37 cells)	levels of USP3, USP10, USP13, USP16 and USP18 ([12]; H4 cells, 10 μM, 4 hrs)
Clc1ccc2ncnc(NCc3ccc4c(c3)OCO4)c2c1 [MBCQ]	significantly reduced	consistently reduced	morphologically similar to that control	conspicuously absent	no detectable effect on cell cycle distribution	Nor does MBCQ have any effect	no effect on the phosphorylation of mTOR and its targets	No effect	not a direct inhibitor of Vps34 enzymatic activity	–	–	–	–	–	–	–	–	–	–	–
Fc1ccc(CNc2ncnc3ccc(F)cc23)cc1 [C43, 6-fluoro-N-(4-fluorobenzyl)quinazolin-4-amine]	–	–	–	–	–	–	–	–	–	autophagosomes are largely absent	reduced the survival	inhibited autophagy	reduced the survival	inhibited autophagy	highly sensitive	induced a peak of sub-diploid DNA	inhibited the proliferation	reduce the levels of USP13 and USP10	little effect	reduced the levels of these five USPs
